Measured values published in patent US20260262643A1, “HERBICIDAL BENZOXAZINES” (FMC CORPORATION, priority 2022, published 2026).
Where two headings read alike, the source gives them in different places.

Tests used:
ryegrass, Italian = experiment: Test A preemergence; type: in vivo, Lolium multiflorum; settings: for pest or weed control at 125 g/ha: 125 g ai/ha
Outline: (§1)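 Loam/sand soil; pre-em directed soil spray at planting, post-em spray at 1–2 leaf (2–10 cm). Compound in non-phytotoxic solvent + surfactant. Greenhouse 10 d; visual injury vs untreated, 0 = no effect, 100 = complete control.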

foxtail, giant [1] = experiment: Test A postemergence; type: in vivo, Setaria faberi; settings: postemergence, 10 days, 0 to 100 scale (0 no effect, 100 complete control); for pest or weed control at 125 g/ha: 125 g ai/ha
Outline: as §1

foxtail, giant [2] = experiment: Test A preemergence; type: in vivo, Setaria faberi; settings: for pest or weed control at 125 g/ha: 125 g ai/ha
Outline: as §1

pigweed, palmer [3] = experiment: Test A postemergence; type: in vivo, Amaranthus palmeri; settings: postemergence, 10 days, 0 to 100 scale (0 no effect, 100 complete control)
Outline: as §1

ragweed [4] = experiment: Test A postemergence; type: in vivo, Ambrosia artemisiifolia; settings: postemergence, 10 days, 0 to 100 scale (0 no effect, 100 complete control)
Outline: as §1

wheat = experiment: Test A preemergence; type: in vivo, Triticum aestivum; settings: for plant injury at 125 g/ha: 125 g ai/ha
Outline: as §1

pigweed, palmer [5] = experiment: Test A preemergence; type: in vivo, Amaranthus palmeri; settings: for pest or weed control at 125 g/ha: 125 g ai/ha
Outline: as §1

barnyardgrass = experiment: Test B flooded paddy test; type: in vivo, Echinochloa crus-galli; settings: 250 g ai/ha, Flood, 13 days, 0 to 100 scale (0 no effect, 100 complete control)
Outline: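 Visual scores from 0 (no effect) to 100 (complete kill) were assigned 13 days after treatment by comparison with controls. Seedlings had been treated at two leaves by adding compound to floodwater standing 3 cm deep, kept at that level in the greenhouse.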

corn [6] = experiment: Test A postemergence; type: in vivo, Zea mays; settings: postemergence, 10 days, 0 to 100 scale (0 no effect, 100 complete control)
Outline: as §1

horseweed = experiment: Test A postemergence; type: in vivo, Erigeron canadensis; settings: postemergence, 10 days, 0 to 100 scale (0 no effect, 100 complete control); for pest or weed control at 125 g/ha: 125 g ai/ha
Outline: as §1

corn [7] = experiment: Test A preemergence; type: in vivo, Zea mays; settings: for Corn plant response rating (crop injury, 0 = no effect, 100 = complete kill) at 125 g/ha: 125 g ai/ha
Outline: as §1

soybean = experiment: Test A postemergence; type: in vivo, Glycine max; settings: postemergence, 10 days, 0 to 100 scale (0 no effect, 100 complete control)
Outline: as §1

kochia = experiment: Test A postemergence; type: in vivo, Bassia scoparia; settings: postemergence, 10 days, 0 to 100 scale (0 no effect, 100 complete control); for pest or weed control at 125 g/ha: 125 g ai/ha
Outline: as §1

ragweed [8] = experiment: Test A preemergence; type: in vivo, Ambrosia artemisiifolia; settings: for pest or weed control at 125 g/ha: 125 g ai/ha
Outline: as §1

[9] = 500 g ai/ha, visual injury after 10 days, 0 to 100 scale, 0 is no effect, 100 is complete control

Q: What does the source list for Cc1ncn(-c2ccc(C)c(C(=O)N3C[C@H](C)Oc4c(Cl)cccc43)c2)n1 (single isomer, unassigned) [Compound 74]?
A: pest or weed control at 125 g/ha (ryegrass, Italian; Lolium multiflorum, pre-emergence, 240 h, visual injury after 10 days, 0 to 100 scale, 0 is no effect, 100 is complete control, read-out: Plant response rating, Ryegrass, Italian): 100%; pest or weed control at 500 g/ha (ryegrass, Italian; Lolium multiflorum, pre-emergence, 240 h, 500 g ai/ha, 0 to 100 scale (0 no effect, 100 complete control), 10 days, read-out: Plant response rating, Ryegrass, Italian): 100%; pest or weed control at 125 g/ha (foxtail, giant [1]; Setaria faberi, post-emergence, 240 h, visual injury, read-out: Plant response rating, Foxtail, Giant): 90%; pest or weed control at 500 g/ha (foxtail, giant [1]; Setaria faberi, post-emergence, 240 h, 500 g ai/ha, visual injury, read-out: Plant response rating, Foxtail, Giant): 90%; pest or weed control at 125 g/ha (foxtail, giant [2]; Setaria faberi, pre-emergence, 240 h, visual injury after 10 days, 0 to 100 scale, 0 is no effect, 100 is complete control, read-out: Plant response rating, Foxtail, Giant): 100%; pest or weed control at 500 g/ha (foxtail, giant [2]; Setaria faberi, pre-emergence, 240 h, 500 g ai/ha, 0 to 100 scale (0 no effect, 100 complete control), 10 days, read-out: Plant response rating, Foxtail, Giant): 100%; pest or weed control at 500 g/ha (pigweed, palmer [3]; Amaranthus palmeri, post-emergence, 240 h, 500 g ai/ha, visual injury, read-out: Plant response rating, Pigweed, Palmer): 70%; pest or weed control at 500 g/ha (ragweed [4]; Ambrosia artemisiifolia, post-emergence, 240 h, 500 g ai/ha, visual injury, read-out: Plant response rating, Ragweed): 50%; plant injury at 125 g/ha (wheat; Triticum aestivum, pre-emergence, 240 h, visual injury after 10 days, 0 to 100 scale, 0 is no effect, 100 is complete control, read-out: Plant response rating, Wheat): 20%; plant injury at 500 g/ha (wheat; Triticum aestivum, pre-emergence, 240 h, 500 g ai/ha, 0 to 100 scale (0 no effect, 100 complete control), 10 days, read-out: Plant response rating, Wheat): 90%; pest or weed control at 125 g/ha (pigweed, palmer [5]; Amaranthus palmeri, pre-emergence, 240 h, visual injury after 10 days, 0 to 100 scale, 0 is no effect, 100 is complete control, read-out: Plant response rating, Pigweed, Palmer): 90%; pest or weed control at 500 g/ha (pigweed, palmer [5]; Amaranthus palmeri, pre-emergence, 240 h, 500 g ai/ha, 0 to 100 scale (0 no effect, 100 complete control), 10 days, read-out: Plant response rating, Pigweed, Palmer): 100%; pest or weed control at 250 g/ha (barnyardgrass; Echinochloa crus-galli, 312 h, read-out: Plant response rating, Barnyardgrass): 10%; Corn plant response rating (crop injury, 0 = no effect, 100 = complete kill) at 125 g/ha (corn [6]; Zea mays, post-emergence, 240 h, 125 g ai/ha, visual injury): 60%; Corn plant response rating (crop injury, 0 = no effect, 100 = complete kill) at 500 g/ha (corn [6]; Zea mays, post-emergence, 240 h, 500 g ai/ha, visual injury): 90%; pest or weed control at 125 g/ha (horseweed; Erigeron canadensis, post-emergence, 240 h, visual injury, read-out: Plant response rating, Horseweed): 0%; pest or weed control at 500 g/ha (horseweed; Erigeron canadensis, post-emergence, 240 h, 500 g ai/ha, visual injury, read-out: Plant response rating, Horseweed): 0%; Corn plant response rating (crop injury, 0 = no effect, 100 = complete kill) at 125 g/ha (corn [7]; Zea mays, pre-emergence, 240 h, visual injury after 10 days, 0 to 100 scale, 0 is no effect, 100 is complete control): 40%; Corn plant response rating (crop injury, 0 = no effect, 100 = complete kill) at 500 g/ha (corn [7]; Zea mays, pre-emergence, 240 h, 500 g ai/ha, 0 to 100 scale (0 no effect, 100 complete control), 10 days): 90%; plant injury at 500 g/ha (soybean; Glycine max, post-emergence, 240 h, 500 g ai/ha, visual injury, read-out: Plant response rating, Soybean): 100%; pest or weed control at 125 g/ha (kochia; Bassia scoparia, post-emergence, 240 h, visual injury, read-out: Plant response rating, Kochia): 70%; pest or weed control at 500 g/ha (kochia; Bassia scoparia, post-emergence, 240 h, 500 g ai/ha, visual injury, read-out: Plant response rating, Kochia): 90%; pest or weed control at 125 g/ha (ragweed [8]; Ambrosia artemisiifolia, pre-emergence, 240 h, visual injury after 10 days, 0 to 100 scale, 0 is no effect, 100 is complete control, read-out: Plant response rating, Ragweed): 0%; pest or weed control at 500 g/ha (ragweed [8]; Ambrosia artemisiifolia, pre-emergence, 240 h, 500 g ai/ha, 0 to 100 scale (0 no effect, 100 complete control), 10 days, read-out: Plant response rating, Ragweed): 100%

Q: CC(C)c1ncn(-c2cc(C(=O)N3C[C@H](C)Oc4c(Cl)cccc43)c3ccccc3c2)n1 [Compound 146] was tested. Which “Plant response rating, Ryegrass, Italian” value (ryegrass, Italian; [9]) did it give?
A: 70

Q: And the pest or weed control at 125 g/ha (ryegrass, Italian; Lolium multiflorum, pre-emergence, 240 h, 0 to 100 scale, read-out: Plant response rating, Ryegrass, Italian)?
A: 30%

Q: What about the “Plant response rating, Foxtail, Giant” value (foxtail, giant [1]; 500 g ai/ha, visual injury) of the same compound?
A: 50

Q: And the pest or weed control at 125 g/ha (foxtail, giant [1]; Setaria faberi, post-emergence, 240 h, read-out: Foxtail, Giant plant response rating)?
A: 30%

Q: What about the “Plant response rating, Foxtail, Giant” value (foxtail, giant [2]; [9]) of the same compound?
A: 100

Q: What about the pest or weed control at 125 g/ha (foxtail, giant [2]; Setaria faberi, pre-emergence, 240 h, 0 to 100 scale, read-out: Plant response rating, Foxtail, Giant) of the same compound?
A: 80%

Q: What about the “Plant response rating, Pigweed, Palmer” value (pigweed, palmer [3]; 500 g ai/ha, visual injury) of the same compound?
A: 70

Q: And the pest or weed control at 125 g/ha (pigweed, palmer [3]; Amaranthus palmeri, post-emergence, 240 h, 125 g ai/ha, read-out: Pigweed, Palmer plant response rating)?
A: 70%

Q: And the “Plant response rating, Ragweed” value (ragweed [4]; 500 g ai/ha, visual injury)?
A: 0

Q: What about the pest or weed control at 125 g/ha (ragweed [4]; Ambrosia artemisiifolia, post-emergence, 240 h, 125 g ai/ha, read-out: Ragweed plant response rating) of the same compound?
A: 0%

Q: And the “Plant response rating, Wheat” value (wheat; [9])?
A: 0

Q: What about the plant injury at 125 g/ha (wheat; Triticum aestivum, pre-emergence, 240 h, 0 to 100 scale, read-out: Plant response rating, Wheat) of the same compound?
A: 0%

Q: What about the “Plant response rating, Pigweed, Palmer” value (pigweed, palmer [5]; [9]) of the same compound?
A: 100

Q: What about the pest or weed control at 125 g/ha (pigweed, palmer [5]; Amaranthus palmeri, pre-emergence, 240 h, 0 to 100 scale, read-out: Plant response rating, Pigweed, Palmer) of the same compound?
A: 90%

Q: And the “Plant response rating, Barnyardgrass” value (barnyardgrass)?
A: 0

Q: What about the “Plant response rating, Corn” value (corn [6]; 500 g ai/ha, visual injury) of the same compound?
A: 30

Q: What about the plant injury at 125 g/ha (corn [6]; Zea mays, post-emergence, 240 h, 125 g ai/ha, read-out: Corn plant response rating) of the same compound?
A: 10%

Q: And the “Plant response rating, Horseweed” value (horseweed; 500 g ai/ha, visual injury)?
A: 0

Q: What about the pest or weed control at 125 g/ha (horseweed; Erigeron canadensis, post-emergence, 240 h, read-out: Horseweed plant response rating) of the same compound?
A: 0%

Q: And the “Plant response rating, Corn” value (corn [7]; [9])?
A: 0

Q: And the Corn plant response rating (crop injury, 0 = no effect, 100 = complete kill) at 125 g/ha (corn [7]; Zea mays, pre-emergence, 240 h, 0 to 100 scale)?
A: 0%

Q: What about the “Plant response rating, Soybean” value (soybean; 500 g ai/ha, visual injury) of the same compound?
A: 100

Q: And the plant injury at 125 g/ha (soybean; Glycine max, post-emergence, 240 h, 125 g ai/ha, read-out: Soybean plant response rating)?
A: 50%

Q: And the “Plant response rating, Kochia” value (kochia; 500 g ai/ha, visual injury)?
A: 90

Q: And the pest or weed control at 125 g/ha (kochia; Bassia scoparia, post-emergence, 240 h, read-out: Kochia plant response rating)?
A: 80%

Q: What about the “Plant response rating, Ragweed” value (ragweed [8]; [9]) of the same compound?
A: 0

Q: What about the pest or weed control at 125 g/ha (ragweed [8]; Ambrosia artemisiifolia, pre-emergence, 240 h, 0 to 100 scale, read-out: Plant response rating, Ragweed) of the same compound?
A: 0%
